Measured values reported in paper PMC9186361 (Drug Delivery, 2022).
≈ marks a conversion by molar mass, not a printed value.

Experiments:
PDI = system: PDI; set-up: method as in Jasuja et al., 2012; conditions: insulin-based turbidimetric assay; 95% CI 1.1–10.7 μM; ref Jasuja et al., 2012; read-out: IC50 of PDI inhibition; cited from earlier work
thrombin = target: T1, thrombin (Homo sapiens, UniProt P00734); experiment: Hydrolysis of chromogenic substrate S2238 by thrombin in vitro; assay type: biochemical; conditions: rutin up to 50 μM, 0.4 U/mL thrombin
T1 construct: Human thrombin was purchased from Hematologic Technologies Inc. (Essex Junction, VT); purchased Hematologic Technologies Inc. (Essex Junction, VT)
From the text: We tested the antithrombotic effects of NanoR and NaR ex vivo and in vivo. Thrombin plays a pivotal role in the coagulation process, and its amount reflects the hemostatic function (Mann, [2003]). […] In our clot formation study, the treatment with NanoR and NaR led to delayed clotting initiation time and a limited extent of clot formation. Again, NanoR exerted a stronger anticoagulatory effect than NaR, and excess exogenous PDI restored the coagulation function of pretreated plasma in clot formation assay. […] The link between obstructive atherosclerosis in the epicardial coronary arteries and myocardial ischemia is well established. In the past several decades, however, a number of studies have discovered that coronary microvascular dysfunction and remodeling contribute to myocardial ischemia in patients with normal coronary arteries. […] Recently, a novel two-stage mechanism for the action of FeCl3 in thrombus formation has been proposed. The first stage is based on colloidal chemistry principles whereby cells and plasma proteins adhere and aggregate due to the binding of negatively charged proteins to positively charged iron species. The extent of this stage is dependent on effective FeCl3 concentration, which is governed by intraluminal mass transport. […] (A) The hydrolysis of chromogenic substrate S2238 by different concentrations of thrombin was determined.

[1] = Saturation solubility of rutin by shake flask method; assay type: physicochemical; conditions: thermodynamic from solid

## C[C@@H]1O[C@@H](OC[C@H]2O[C@@H](Oc3c(-c4ccc(O)c(O)c4)oc4cc(O)cc(O)c4c3=O)[C@H](O)[C@@H](O)[C@@H]2O)[C@H](O)[C@H](O)[C@H]1O [rutin, quercetin-3-O-rutinoside]
PDI
  IC50: 6.1 µM
thrombin
  effect on thrombin activity (hydrolysis of S2238): did not inhibit thrombin proteolytic activity
thrombin; listed as native rutin
  effect on thrombin activity (hydrolysis of S2238): did not affect the activity of thrombin
[1]; organic solvent or mixture, in 1,2-propylene glycol, 37 °C, 72 h
  solubility at 72 h: 32 ± 2 mg/mL (≈ 52.4 mM)
[1]; self-emulsifying formulation F2, 37 °C, in formulation F2
  solubility at 72 h: 24.3 ± 3.2 mg/mL (≈ 39.8 mM)
[1]; self-emulsifying formulation F5, 37 °C, in formulation F5
  solubility at 72 h: 19.2 ± 2.8 mg/mL (≈ 31.4 mM)
[1]; self-emulsifying formulation F7, 37 °C, in formulation F7
  solubility at 72 h: 16.2 ± 3.7 mg/mL (≈ 26.5 mM)
[1]; in Labrasol, 37 °C, 72 h
  solubility at 72 h: 5.2 ± 0.18 mg/mL (≈ 8.52 mM)
